Experimental findings from US8772480B2, “Inhibitors of PI3 kinase and/or mTOR” (priority 2009, dated 2014) are described below.

Where two headings read alike, the source gives them in different places.

A word on the Ki: it is a dissociation constant, usually derived from enzyme kinetics or from competition with a known ligand. By IC50 is commonly meant the concentration that gives 50% inhibition.

The target in assay [1] is T1, PI3Kα (Homo sapiens (Human), UniProt P42336). The following applies: read-out: PI3Kα AlphaScreen ® Ki. Background: Bead proximity is the source of the signal in Alpha formats.
T1 sequence (P42336 whole entry): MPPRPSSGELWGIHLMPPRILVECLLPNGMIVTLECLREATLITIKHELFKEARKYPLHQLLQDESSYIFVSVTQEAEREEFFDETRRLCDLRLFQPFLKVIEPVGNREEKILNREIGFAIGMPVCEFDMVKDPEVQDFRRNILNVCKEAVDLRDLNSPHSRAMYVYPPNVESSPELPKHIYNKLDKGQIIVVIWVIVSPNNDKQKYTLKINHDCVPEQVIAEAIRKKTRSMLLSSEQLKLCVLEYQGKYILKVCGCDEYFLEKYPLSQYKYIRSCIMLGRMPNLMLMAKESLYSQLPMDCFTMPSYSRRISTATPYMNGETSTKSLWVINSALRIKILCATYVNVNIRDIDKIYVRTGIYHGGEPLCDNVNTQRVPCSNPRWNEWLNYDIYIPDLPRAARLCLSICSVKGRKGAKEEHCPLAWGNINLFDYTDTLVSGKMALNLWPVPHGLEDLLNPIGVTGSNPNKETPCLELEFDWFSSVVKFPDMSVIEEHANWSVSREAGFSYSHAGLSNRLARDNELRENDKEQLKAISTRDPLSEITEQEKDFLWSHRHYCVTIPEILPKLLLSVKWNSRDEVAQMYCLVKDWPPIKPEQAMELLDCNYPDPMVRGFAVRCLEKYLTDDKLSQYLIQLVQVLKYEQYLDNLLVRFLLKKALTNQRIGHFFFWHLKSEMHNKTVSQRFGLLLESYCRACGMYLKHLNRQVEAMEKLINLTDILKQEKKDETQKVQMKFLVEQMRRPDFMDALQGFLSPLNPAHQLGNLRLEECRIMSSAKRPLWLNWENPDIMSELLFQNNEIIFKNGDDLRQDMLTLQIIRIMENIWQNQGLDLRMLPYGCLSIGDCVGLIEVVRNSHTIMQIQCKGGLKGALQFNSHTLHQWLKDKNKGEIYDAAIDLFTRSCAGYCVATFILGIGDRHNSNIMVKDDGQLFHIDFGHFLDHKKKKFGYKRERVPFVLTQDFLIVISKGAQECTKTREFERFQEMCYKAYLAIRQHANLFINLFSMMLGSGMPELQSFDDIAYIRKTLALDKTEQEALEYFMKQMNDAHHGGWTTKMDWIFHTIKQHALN
T1 sequence (P27986 whole entry partner): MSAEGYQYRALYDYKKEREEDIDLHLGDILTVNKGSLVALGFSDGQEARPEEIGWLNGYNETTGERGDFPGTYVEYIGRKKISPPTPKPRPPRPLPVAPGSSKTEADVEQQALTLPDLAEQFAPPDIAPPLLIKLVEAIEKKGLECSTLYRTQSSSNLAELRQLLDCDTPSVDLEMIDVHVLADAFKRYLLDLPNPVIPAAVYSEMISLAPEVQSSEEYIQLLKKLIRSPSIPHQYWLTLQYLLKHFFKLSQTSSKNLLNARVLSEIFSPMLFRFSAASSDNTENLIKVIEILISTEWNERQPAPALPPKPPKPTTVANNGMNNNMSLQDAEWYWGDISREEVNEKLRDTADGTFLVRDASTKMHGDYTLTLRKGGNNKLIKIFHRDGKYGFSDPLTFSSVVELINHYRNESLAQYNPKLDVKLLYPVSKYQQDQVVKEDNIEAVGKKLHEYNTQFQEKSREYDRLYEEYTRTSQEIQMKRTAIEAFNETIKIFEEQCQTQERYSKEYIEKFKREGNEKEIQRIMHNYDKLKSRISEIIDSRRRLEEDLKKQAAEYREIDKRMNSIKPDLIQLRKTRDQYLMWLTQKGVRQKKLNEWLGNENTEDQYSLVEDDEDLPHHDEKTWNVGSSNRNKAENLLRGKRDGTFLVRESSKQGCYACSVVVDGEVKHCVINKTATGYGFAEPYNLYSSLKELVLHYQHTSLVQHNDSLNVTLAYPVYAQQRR
In assay [2] the test system is phosphorylation of Akt at Serine 473 in U87 MG cells. The following applies: read-out: U87Cell IC50.
The target in assay [3] is T1, PI3Kα. Nature of the assay: biochemical. The following applies: PI3Kα AlphaScreen ® Ki.
Assay [4] addresses human mutant B-raf (HuBraf V600E) (Homo sapiens (Human), UniProt P15056, V600E). To be noted: at 10 μM compound concentration; POC = 100 − percent inhibition.
For assay [5], the system named is phosphorylation of Akt at Serine 473 in U87 MG cells. Nature of the assay: cells. To be noted: Homo sapiens, U-87 MG, 2 h, read-out: U87Cell IC50, pAkt (Ser 473), U87 MG cells, two hours with compound.

Chain of human mutant B-raf (HuBraf V600E) (P15056 whole entry V600E): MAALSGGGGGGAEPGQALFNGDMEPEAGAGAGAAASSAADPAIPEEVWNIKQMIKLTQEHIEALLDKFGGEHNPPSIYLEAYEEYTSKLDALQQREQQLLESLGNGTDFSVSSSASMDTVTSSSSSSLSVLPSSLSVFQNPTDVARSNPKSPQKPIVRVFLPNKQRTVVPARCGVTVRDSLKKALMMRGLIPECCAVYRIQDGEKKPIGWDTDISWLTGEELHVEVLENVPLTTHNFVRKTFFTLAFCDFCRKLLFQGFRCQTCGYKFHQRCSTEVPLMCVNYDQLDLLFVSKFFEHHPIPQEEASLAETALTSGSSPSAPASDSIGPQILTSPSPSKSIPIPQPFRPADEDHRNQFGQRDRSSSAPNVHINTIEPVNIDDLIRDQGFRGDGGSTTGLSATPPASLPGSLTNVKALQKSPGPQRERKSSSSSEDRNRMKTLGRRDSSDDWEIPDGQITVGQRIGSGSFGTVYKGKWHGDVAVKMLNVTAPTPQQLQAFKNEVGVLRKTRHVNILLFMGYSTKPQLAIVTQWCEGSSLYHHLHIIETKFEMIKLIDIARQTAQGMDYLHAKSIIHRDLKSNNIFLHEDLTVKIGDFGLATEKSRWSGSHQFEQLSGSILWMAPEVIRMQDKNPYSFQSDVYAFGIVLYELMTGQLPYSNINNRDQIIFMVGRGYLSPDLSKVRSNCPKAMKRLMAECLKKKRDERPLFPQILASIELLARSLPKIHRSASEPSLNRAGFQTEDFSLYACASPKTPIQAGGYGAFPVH

“4-((5-(4-Amino-6-Methyl-1,3,5-Triazin-2-yl)-6-(5-Fluoro-6-Methoxypyridin-3-Ylaamino)Pyridin-3-yl)Methyl)-N-Methyl-N-(2,2,2-Trifluoroethyl)Piperazine-1-Carboxamide [Example 358]”: on PI3Kα [1], the inhibition constant (Ki) is 24 nM. The IC50 in assay [2] amounted to 121 nM.
For `COc1ccc(Nc2ncc([C@@H](O)C(F)(F)F)cc2-c2nc(C)nc(N)n2)cn1.COc1ccc(Nc2ncc([C@H](O)C(F)(F)F)cc2-c2nc(C)nc(N)n2)cn1` (racemic) [Example 269, (R,S)-1-(5-(4-Amino-6-Methyl-1,3,5-Triazin-2-yl)-6-(6-Methoxypyridin-3-Ylamino)Pyridin-3-yl)-2,2,2-Trifluoroethanol], the inhibitory constant (Ki) at PI3Kα [1] was found to be 33 nM. Also, the IC50 in assay [2] (pAkt (Ser 473), U87 MG cells, two hours with compound) was determined as 89 nM.
`COc1ncc(Nc2ncc(C(C)CO)cc2-c2nc(C)nc(N)n2)cc1F` (single isomer, unassigned) [312 First eluting, 2-(5-(4-Amino-6-methyl-1,3,5-triazin-2-yl)-6-(5-fluoro-6-methoxypyridin-3-ylamino)pyridin-3-yl)propan-1-ol]: affinity at PI3Kα [3] was put at a Ki of 9 nM.
The same measure, in the same setting: next, `COc1ncc(Nc2ncc(C(C)CO)cc2-c2nc(C)nc(N)n2)cc1F` (single isomer, unassigned) [312 Second eluting, 2-(5-(4-Amino-6-methyl-1,3,5-triazin-2-yl)-6-(5-fluoro-6-methoxypyridin-3-ylamino)pyridin-3-yl)propan-1-ol]: 7 nM.
On to `CC(=O)Nc1ccc(Nc2ncccc2-c2ncnc3[nH]cnc23)cn1` [Example 16, N-(5-(3-(9H-Purin-6-yl)Pyridin-2-Ylamino)Pyridin-2-yl)Acetamide], for which the inhibition constant Ki on PI3Kα [1] is more than 1500 nM. Besides, the “Mutant B-raf HTRF Assay POC Mean n = 2” value in assay [4] was 42% of Control (POC).
`Nc1ccc(Nc2ncccc2-c2ncnc3[nH]cnc23)cn1` [Example 17, N3-(3-(9H-Purin-6-yl)Pyridin-2-yl)Pyridine-3,6-Diamine]: the Ki on PI3Kα [1] is more than 1500 nM. Besides, in assay [4], the “Mutant B-raf HTRF Assay POC Mean n = 2” value is listed as 38% of Control (POC).
On to `Cc1nc(N)cc(-c2cccnc2Nc2cccc(O)c2)n1` [Example 26, 3-(3-(6-Amino-2-Methylpyrimidin-4-yl)Pyridin-2-Ylamino)Phenol], for which the Ki at PI3Kα [1] stood at 24 nM. In addition, the “Mutant B-raf HTRF Assay POC Mean n = 2” value in assay [4] is given as 84% of Control (POC).
Regarding `Cc1cnc(Nc2cccnc2)c(-c2nc(C)nc(N)n2)c1` [Example 32, Methyl-6-(5-Methyl-2-(Pyridin-3-Ylamino)Pyridin-3-yl)-1,3,5-Triazin-2-Amine], at PI3Kα [1], the inhibitory constant (Ki) was 191 nM. The IC50 in assay [5] stood at 587 nM. Also, the “Mutant B-raf HTRF Assay POC Mean n = 2” value in assay [4] was 107% of Control (POC).
For `Cc1nc(N)nc(-c2cccnc2Nc2ccc(N)nc2)n1` [Example 50, N5-(3-(4-Amino-6-Methyl-1,3,5-Triazin-2-yl)Pyridin-2-yl)Pyridine-2,5-Diamine] the same measures were 1330 nM, 3070 nM and 87% of Control (POC).
Consider `Cc1nc(-c2cccnc2Nc2cccc3[nH]ncc23)c2cn[nH]c2n1` [Example 55, N-(3-(6-methyl-1H-pyrazolo[3,4-d]pyrimidin-4-yl)pyridin-2-yl)-1H-indazol-4-amine], for which, at PI3Kα [1], the Ki was 1410 nM. Further, the “Mutant B-raf HTRF Assay POC Mean n = 2” value in assay [4] is 103% of Control (POC).
On to `Cc1nc(-c2cc(Cl)cnc2Nc2cccc3[nH]ncc23)c2nc[nH]c2n1` [Example 61, N-(5-Chloro-3-(2-methyl-9H-purin-6-yl)pyridin-2-yl)-1H-indazol-4-amine], for which the Ki on PI3Kα [1] came to 720 nM. Moreover, the IC50 in assay [5] is 3630 nM. Also, the “Mutant B-raf HTRF Assay POC Mean n = 2” value in assay [4] is reported as 66% of Control (POC).
For the compound `Cc1nc(-c2cc(Br)cnc2Nc2cccc3[nH]ncc23)c2nc[nH]c2n1` [Example 64, N-(5-bromo-3-(2-methyl-9H-purin-6-yl)pyridin-2-yl)-1H-indazol-4-amine], the Ki at PI3Kα [1] came out at 50 nM. The IC50 in assay [5] was more than 10000 nM. The “Mutant B-raf HTRF Assay POC Mean n = 2” value in assay [4] was 107% of Control (POC).
Consider `Cc1nc(-c2cc(C(F)(F)F)cnc2Nc2cccc3[nH]ncc23)c2nc[nH]c2n1` [Example 65, N-(3-(2-Methyl-9H-Purin-6-yl)-5-(Trifluoromethyl)Pyridine-2-yl)-1H-Indazol-4-Amine], for which the Ki on PI3Kα [1] was determined as 119 nM. Further, the “Mutant B-raf HTRF Assay POC Mean n = 2” value in assay [4] is listed as 85% of Control (POC).
Consider `COc1ncc(Nc2ncccc2-c2nc(C)nc3[nH]cnc23)cn1` [Example 66, 2-Methoxy-N-(3-(2-Methyl-9H-Purin-6-yl)Pyridin-2-yl)Pyrimidin-5-Amine], for which the inhibitory constant (Ki) at PI3Kα [1] was found to be 62 nM. Moreover, the IC50 in assay [5] was determined as 173 nM. For the same compound, the “Mutant B-raf HTRF Assay POC Mean n = 2” value in assay [4] is given as 103% of Control (POC).
In the same order, the values of `COc1ccc(COCc2cnc(Nc3cccc4[nH]ccc34)c(-c3nc(C)nc4[nH]cnc34)c2)cc1` [Example 71, N-(5-((4-methoxybenzyloxy)methyl)-3-(2-methyl-9H-purin-6-yl)pyridin-2-yl)-1H-indol-4-amine] are 402 nM, 1190 nM and 75% of Control (POC).
In the same order, the values of `Cc1nc(-c2cc(CO)cnc2Nc2cccc3[nH]ncc23)c2nc[nH]c2n1` [Example 72, (6-(1H-indazol-4-ylamino)-5-(2-methyl-9H-purin-6-yl)pyridin-3-yl)methanol] are 33 nM, 8530 nM and 77% of Control (POC).
In the same order, the values of `COc1ccc(Nc2ncc(CCO)cc2-c2nc(C)nc3[nH]cnc23)cn1` [Example 75, 2-(6-(6-methoxypyridin-3-ylamino)-5-(2-methyl-9H-purin-6-yl)pyridin-3-yl)ethanol] are 23 nM, 179 nM and 94% of Control (POC).
In the case of `COc1ccc(Nc2ncc(CO)cc2-c2nc(C)nc3[nH]cnc23)cn1` [Example 76, (6-(6-Methoxypyridin-3-Ylamino)-5-(2-Methyl-9H-Purin-6-yl)Pyridin-3-yl)Methanol], at PI3Kα [1], the Ki is 44 nM. Also, in assay [5], the IC50 is 195 nM. The “Mutant B-raf HTRF Assay POC Mean n = 2” value in assay [4] is given as 108% of Control (POC).
In the same order, the values of `COc1ccc(Nc2ncc(CN3CCNCC3)cc2-c2nc(C)nc3[nH]cnc23)cn1` [Example 84, N-(6-methoxypyridin-3-yl)-3-(2-methyl-9H-purin-6-yl)-5-(piperazin-1-ylmethyl)pyridin-2-amine] are 97 nM, 1910 nM and 97% of Control (POC).
In the same order, the values of `COc1ccc(Nc2ncc(CN3CCN(S(C)(=O)=O)CC3)cc2-c2nc(C)nc3[nH]cnc23)cn1` [Example 85, N-(6-methoxypyridin-3-yl)-3-(2-methyl-9H-purin-6-yl)-5-((4-(methylsulfonyl)piperazin-1-yl)methyl)pyridin-2-amine] are 19 nM, 133 nM and 90% of Control (POC).
Take `COc1ccc(Nc2cnc(Nc3ccc(OC)nc3)c(-c3nc(C)nc4[nH]cnc34)c2)cc1` [Example 90, N5-(4-methoxyphenyl)-N2-(6-methoxypyridin-3-yl)-3-(2-methyl-9H-purin-6-yl)pyridine-2,5-diamine]: the Ki on PI3Kα [1] worked out at 9 nM. Further, the 50% inhibitory concentration (IC50) in assay [5] stood at 129 nM. Further, the “Mutant B-raf HTRF Assay POC Mean n = 2” value in assay [4] is 99% of Control (POC).
For `COc1ccc(Nc2ncc(N3CCOCC3)cc2-c2nc(C)nc3[nH]cnc23)cn1` [Example 97] the same measures were 107 nM, 441 nM and 96% of Control (POC).
Turning to `Cc1nc(N)cc(-c2cnccc2Nc2cccc3[nH]ncc23)n1` [Example 107, N-(3-(6-amino-2-methylpyrimidin-4-yl)pyridin-4-yl)-1H-indazol-4-amine], on PI3Kα [1], the Ki amounted to 359 nM. Further, the IC50 in assay [5] is 1540 nM. Besides, the “Mutant B-raf HTRF Assay POC Mean n = 2” value in assay [4] is given as 62% of Control (POC).
Turning to `COc1ccc(Nc2ncc([C@@H](O)C(C)(C)C)cc2-c2nc(C)nc3c2ncn3C2CCCCO2)cn1` (stereo partly drawn) [Example 132, (1S)-1-(6-(6-Methoxypyridin-3-Ylamino)-5-(2-Methyl-9-(Tetrahydro-2H-Pyran-2-yl)-9H-Purin-6-yl)Pyridin-3-yl)-2,2-Dimethylpropan-1-ol], the inhibition constant Ki at PI3Kα [3] was found to be 12 nM. Further, the IC50 in assay [5] turned out to be 147 nM.
In the same order, the values of `COc1ccc(Nc2ncc([C@H](O)C(C)(C)C)cc2-c2nc(C)nc3c2ncn3C2CCCCO2)cn1` (stereo partly drawn) [Example 133, (1R)-1-(6-(6-Methoxypyridin-3-Ylamino)-5-(2-Methyl-9-(Tetrahydro-2H-Pyran-2-yl)-9H-Purin-6-yl)Pyridin-3-yl)-2,2-Dimethylpropan-1-ol] are 31 nM and 278 nM.
The compound `COc1ccc(Nc2ncc(CN3CCN(C(=O)N(C)C4CC4)CC3)cc2-c2nc(C)nc(N)n2)cn1` [Example 359, 4-((5-(4-Amino-6-Methyl-1,3,5-Triazin-2-yl)-6-(6-Methoxypyridin-3-Ylamino)Pyridin-3-yl)Methyl)-N-Cyclopropyl-N-Methylpiperazine-1-Carboxamide] came in with a Ki at PI3Kα [3] of 45 nM. For the same compound, the IC50 in assay [5] turned out to be 90 nM.
